Source: patent US8084649B2, “Herbicides” (Syngenta Crop Protection, inc., priority 2007, dated 2011)

What was measured:
Assay type in all cases: in vivo
[1] = test system: Alopecurus myosuroides (ALOMY); experiment: Pre-emergence herbicidal activity, glasshouse pot test; details: Alopecurus myosuroides, 480 h, rate 500 g/ha, evaluated after 20 days, read-out: Pre-emergence activity, ALOMY (100=total damage to plant; 0=no damage to plant)
Summary of the method: (§1)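 Pre-emergence application: sprayed one day after seeding into pots of sterilised standard soil. After 20 days' growth in a greenhouse, percent damage was scored visually, 0 meaning unharmed and 100 total damage.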

Avena fatua (AVEFA) [2] = experiment: as above; details: Avena fatua, 480 h, rate 500 g/ha, evaluated after 20 days, read-out: Pre-emergence activity, AVEFA (100=total damage to plant; 0=no damage to plant)
Summary of the method: as §1

[3] = test system: Digitaria sanguinalis (DIGSA); experiment: as above; details: Digitaria sanguinalis, 480 h, rate 500 g/ha, evaluated after 20 days, read-out: Pre-emergence activity, DIGSA (100=total damage to plant; 0=no damage to plant)
Summary of the method: as §1

[4] = test system: Echinochloa crus-galli (ECHCG); experiment: as above; details: Echinochloa crus-galli, 480 h, rate 500 g/ha, evaluated after 20 days, read-out: Pre-emergence activity, ECHCG (100=total damage to plant; 0=no damage to plant)
Summary of the method: as §1

Lolium perenne (LOLPE) [5] = experiment: as above; details: Lolium perenne, 480 h, rate 500 g/ha, evaluated after 20 days, read-out: Pre-emergence activity, LOLPE (100=total damage to plant; 0=no damage to plant)
Summary of the method: as §1

Setaria faberi (SETFA) [6] = experiment: as above; details: Setaria faberi, 480 h, rate 500 g/ha, evaluated after 20 days, read-out: Pre-emergence activity, SETFA (100=total damage to plant; 0=no damage to plant)
Summary of the method: as §1

[7] = test system: Alopecurus myosuroides (ALOMY); experiment: Post-emergence herbicidal activity, glasshouse pot test; details: Alopecurus myosuroides, evaluated after 14 or 15 days, read-out: Post-emergence activity, ALOMY (100=total damage to plant; 0=no damage to plant); for pest or weed control at 125 g/ha: rate 125 g/ha; for pest or weed control at 500 g/ha: rate 500 g/ha
Summary of the method: (§2)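 Visual damage ratings on a 0–100 scale (100 = plant killed) were taken 14 or 15 days after treatment. Seedlings had been raised for 10 days in sterilised soil in a glasshouse before spraying with an aqueous solution of the formulated active ingredient.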

Avena fatua (AVEFA) [8] = experiment: as above; details: Avena fatua, evaluated after 14 or 15 days, read-out: Post-emergence activity, AVEFA (100=total damage to plant; 0=no damage to plant); for pest or weed control at 125 g/ha: rate 125 g/ha; for pest or weed control at 500 g/ha: rate 500 g/ha
Summary of the method: as §2

[9] = test system: Digitaria sanguinalis (DIGSA); experiment: as above; details: Digitaria sanguinalis, evaluated after 14 or 15 days, read-out: Post-emergence activity, DIGSA (100=total damage to plant; 0=no damage to plant); for pest or weed control at 125 g/ha: rate 125 g/ha; for pest or weed control at 500 g/ha: rate 500 g/ha
Summary of the method: as §2

[10] = test system: Echinochloa crus-galli (ECHCG); experiment: as above; details: Echinochloa crus-galli, evaluated after 14 or 15 days, read-out: Post-emergence activity, ECHCG (100=total damage to plant; 0=no damage to plant); for pest or weed control at 125 g/ha: rate 125 g/ha; for pest or weed control at 500 g/ha: rate 500 g/ha
Summary of the method: as §2

Lolium perenne (LOLPE) [11] = experiment: as above; details: Lolium perenne, evaluated after 14 or 15 days, read-out: Post-emergence activity, LOLPE (100=total damage to plant; 0=no damage to plant); for pest or weed control at 125 g/ha: rate 125 g/ha; for pest or weed control at 500 g/ha: rate 500 g/ha
Summary of the method: as §2

Setaria faberi (SETFA) [12] = experiment: as above; details: Setaria faberi, evaluated after 14 or 15 days, read-out: Post-emergence activity, SETFA (100=total damage to plant; 0=no damage to plant); for pest or weed control at 125 g/ha: rate 125 g/ha; for pest or weed control at 500 g/ha: rate 500 g/ha
Summary of the method: as §2

SMILES	pest or weed control at 500 g/ha [1]	pest or weed control at 500 g/ha (Avena fatua (AVEFA) [2])	pest or weed control at 500 g/ha [3]	pest or weed control at 500 g/ha [4]	pest or weed control at 500 g/ha (Lolium perenne (LOLPE) [5])	pest or weed control at 500 g/ha (Setaria faberi (SETFA) [6])	pest or weed control at 125 g/ha [7]	pest or weed control at 125 g/ha (Avena fatua (AVEFA) [8])	pest or weed control at 125 g/ha [9]	pest or weed control at 125 g/ha [10]	pest or weed control at 125 g/ha (Lolium perenne (LOLPE) [11])	pest or weed control at 125 g/ha (Setaria faberi (SETFA) [12])	pest or weed control at 500 g/ha [7]	pest or weed control at 500 g/ha (Avena fatua (AVEFA) [8])	pest or weed control at 500 g/ha [9]	pest or weed control at 500 g/ha [10]	pest or weed control at 500 g/ha (Lolium perenne (LOLPE) [11])	pest or weed control at 500 g/ha (Setaria faberi (SETFA) [12])
CCCS(=O)(=O)C(C)CC1CC(=O)C(c2c(C)cc(C)cc2C)=C(O)C1 (stereo not drawn) [Compound T40]	80%	50%	50%	70%	90%	60%	80%	30%	50%	60%	80%	50%						
CCc1cc(C)cc(CC)c1C1=C(O)CC(C2(SC)CC2)CC1=O (stereo not drawn) [Compound T21]	100%	100%	100%	100%	100%	100%							90%	100%	100%	90%	90%	90%
CCc1cc(C)cc(CC)c1C1=C(OC(=O)OCC(C)C)CC2(CCOCC2)CC1=O [Compound P20]	100%	100%	100%	100%	100%	100%	90%	100%	70%	100%	90%	70%						
COC1CCC2(CC1)CC(=O)C(c1cc(-c3ccc(Cl)cc3)ccc1C)=C(O)C2 (stereo not drawn) [Compound T69]	0%	30%	100%	70%	60%	70%	20%	10%	0%	0%	50%	0%						
CCc1cc(C)cc(CC)c1C1=C(OC(=O)C(C)(C)C)CC(CC(C)SC(C)C)CC1=O (stereo not drawn) [Compound P60]	80%	0%	100%	90%	100%	90%	70%	50%	60%	70%	70%	60%						
CCC[S+]([O-])C(C)CC1CC(=O)C(c2c(C)cc(C)cc2C)=C(O)C1 (stereo not drawn) [Compound T41]	90%	60%	100%	80%	100%	80%	90%	70%	80%	70%	80%	50%						
CCc1cc(C)cc(CC)c1C1=C(O)CC(CC(C)SC)CC1=O (stereo not drawn) [Compound T17]	90%	90%	100%	100%	100%	100%							0%	90%	100%	90%	100%	90%
